Measurements as given in article PMC8447900 (Chemical Science, 2021).

Test system: hENT1
Type: cell-based, human
Conditions: PK15-ENT1 cells

SMILES | effect of AZD8055 on activity of isomer 1a (AZD8055 (5 μM) combined with isomer 1a) | effect of rapamycin on potency of isomer 1a (rapamycin (5 μM) combined with isomer 1a)
COc1ccc(-c2ccc3c(N4CCOC[C@@H]4C)nc(N4CCOC[C@@H]4C)nc3n2)cc1CO [AZD8055] | negligible effect on the activity of isomer 1a | –
CO[C@H]1C[C@@H]2CC[C@@H](C)[C@@](O)(O2)C(=O)C(=O)N2CCCC[C@H]2C(=O)O[C@H]([C@H](C)C[C@@H]2CC[C@@H](O)[C@H](OC)C2)CC(=O)[C@H](C)/C=C(\C)[C@@H](O)[C@@H](OC)C(=O)[C@H](C)C[C@H](C)/C=C/C=C/C=C/1C [Rapamycin] | – | antagonizes isomer 1a inhibition of hENT1-mediated thymidine uptake
